Data taken from patent US12655116B2, “Substituted isophthalic acid diamides” (Bayer Aktiengesellschaft, priority 2020, dated 2026).

What was measured:
ALOMY [1] = test: Post-emergence herbicidal action against ALOMY; format: in vivo, Alopecurus myosuroides; details: dosage 20 g/ha, visual assessment about 3 weeks after treatment vs untreated controls
Outline: (§1)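 Post-emergence greenhouse test; one-leaf stage, 2–3 wk post-sowing, sandy loam. Foliar spray of WP/EC in water, 600–800 l/ha, +0.2% wetting agent. Visual % action at ~3 wk vs untreated (100% = plants dead).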

VERPE [2] = test: Pre-emergence herbicidal action against VERPE; format: in vivo, Veronica persica; details: dosage 80 g/ha
Outline: (§2)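 Herbicidal effect was assessed 3 weeks after treatment by visual comparison with untreated controls, 100% denoting dead plants. Aqueous WP or EC preparations had been applied at 600 to 800 l/ha with 0.2% wetting agent to the soil covering freshly sown seeds.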

VIOTR [3] = test: Post-emergence herbicidal action against VIOTR; format: in vivo, Viola tricolor
Outline: as §1

AMARE [4] = test: Pre-emergence herbicidal action against AMARE; format: in vivo, Amaranthus retroflexus
Outline: as §2

AVEFA [5] = test: Pre-emergence herbicidal action against AVEFA; format: in vivo, Avena fatua; details: 80 g/ha, pre-emergence
Outline: as §2

PHBPU [6] = test: Pre-emergence herbicidal action against PHBPU; format: in vivo, Pharbitis purpurea; details: dosage 80 g/ha
Outline: as §2

ECHCG [7] = test: Post-emergence herbicidal action against ECHCG; format: in vivo, Echinochloa crus-galli
Outline: as §1

VIOTR [8] = test: Pre-emergence herbicidal action against VIOTR; format: in vivo, Viola tricolor
Outline: as §2

ALOMY [9] = test: Pre-emergence herbicidal action against ALOMY; format: in vivo, Alopecurus myosuroides; details: 80 g/ha, pre-emergence, scored visually after 3 weeks vs untreated controls (100% = plants have died, 0% = like control plants)
Outline: as §2

PHBPU [10] = test: Post-emergence herbicidal action against PHBPU; format: in vivo, Pharbitis purpurea
Outline: as §1

ABUTH [11] = test: Pre-emergence herbicidal action against ABUTH; format: in vivo, Abutilon theophrasti; details: for Pre-emergence action against ABUTH (herbicidal activity): 80 g/ha, scored visually after 3 weeks vs untreated controls (100% = plants have died, 0% = like control plants); for Pre-emergence action against ABUTH (herbicidal activity in percent): dosage 20 g/ha, scored visually after 3 weeks vs untreated controls, 100% = plants have died, 0% = like control plants
Outline: as §2

ECHCG [12] = test: Pre-emergence herbicidal action against ECHCG; format: in vivo, Echinochloa crus-galli
Outline: as §2

SETVI [13] = test: Post-emergence herbicidal action against SETVI; format: in vivo, Setaria viridis
Outline: as §1

ABUTH [14] = test: Post-emergence herbicidal action against ABUTH; format: in vivo, Abutilon theophrasti; details: visual assessment about 3 weeks after treatment vs untreated controls
Outline: as §1

AVEFA [15] = test: Post-emergence herbicidal action against AVEFA; format: in vivo, Avena fatua; details: 20 g/ha, visual assessment about 3 weeks after treatment, 100% = plants have died, 0% = like control plants
Outline: as §1

VERPE [16] = test: Post-emergence herbicidal action against VERPE; format: in vivo, Veronica persica
Outline: as §1

MATIN [17] = test: Post-emergence herbicidal action against MATIN; format: in vivo, Matricaria inodora
Outline: as §1

MATIN [18] = test: Pre-emergence herbicidal action against MATIN; format: in vivo, Matricaria inodora
Outline: as §2

POLCO = test: Pre-emergence herbicidal action against POLCO; format: in vivo, Polygonum convolvulus
Outline: as §2

SETVI [19] = test: Pre-emergence herbicidal action against SETVI; format: in vivo, Setaria viridis
Outline: as §2

AMARE [20] = test: Post-emergence herbicidal action against AMARE; format: in vivo, Amaranthus retroflexus; details: 20 g/ha, visual assessment about 3 weeks after treatment, 100% = plants have died, 0% = like control plants
Outline: as §1

DIGSA [21] = test: Pre-emergence herbicidal action against DIGSA; format: in vivo, Digitaria sanguinalis
Outline: as §2

DIGSA [22] = test: Post-emergence herbicidal action against DIGSA; format: in vivo, Digitaria sanguinalis; details: 20 g/ha
Outline: as §1

[23] = 20 g/ha, scored visually after 3 weeks vs untreated controls, 100% = plants have died, 0% = like control plants
[24] = 80 g/ha, scored visually after 3 weeks vs untreated controls (100% = plants have died, 0% = like control plants)

| Compound | Post-emergence action against ALOMY in % (ALOMY [1]) [%] | Pre-emergence action against VERPE in % (VERPE [2]) [%] | Pre-emergence action against AMARE in % (AMARE [4]; [23]) [%] | Pre-emergence action against AMARE in % (AMARE [4]; [24]) [%] | Pre-emergence action against PHBPU in % (PHBPU [6]) [%] | Pre-emergence action against VIOTR in % (VIOTR [8]; dosage 20 g/ha) [%] | Pre-emergence action against VIOTR in % (VIOTR [8]; dosage 80 g/ha) [%] | Pre-emergence action against ALOMY (herbicidal activity) (ALOMY [9]) [%] | Pre-emergence action against ABUTH (herbicidal activity) (ABUTH [11]) [%] | Pre-emergence action against ABUTH (herbicidal activity in percent) (ABUTH [11]) [%] | Pre-emergence action against ECHCG in % (ECHCG [12]; 80 g/ha) [%] | Post-emergence action against ABUTH in % (ABUTH [14]; dosage 20 g/ha) [%] | Post-emergence action at 20 g/ha against AVEFA in % (AVEFA [15]) [%] | Post-emergence action against VERPE in % (VERPE [16]; 20 g/ha) [%] | Post-emergence action against MATIN in % (MATIN [17]; dosage 20 g/ha) [%] | Pre-emergence action against MATIN in % (MATIN [18]; dosage 20 g/ha) [%] | Pre-emergence action against MATIN in % (MATIN [18]; dosage 80 g/ha) [%] | Pre-emergence action against POLCO in % (POLCO; dosage 80 g/ha) [%] | Pre-emergence action against SETVI in % (SETVI [19]; dosage 80 g/ha) [%] | Post-emergence action at 20 g/ha against AMARE in % (AMARE [20]) [%] | other results |
| --- | --- | --- | --- | --- | --- | --- | --- | --- | --- | --- | --- | --- | --- | --- | --- | --- | --- | --- | --- | --- | --- |
| CSc1c(C(=O)Nc2nnnn2C)ccc(C(F)(F)F)c1C(=O)NCC(F)F [Example 1-86] | 100 | 100 | 100 | 100 | 80 | 100 | 100 | 100 | 100 | 100 | 100 | 100 | 100 | 90 | 80 | 100 | 100 | 80 | 100 | 100 | Post-emergence action against VIOTR in % (VIOTR [3]; 5 g/ha): 90%; Post-emergence action against VIOTR in % (VIOTR [3]; 20 g/ha): 100%; Pre-emergence action against AVEFA in % (AVEFA [5]): 100%; Post-emergence action against ECHCG in % (ECHCG [7]; dosage 5 g/ha): 80%; Post-emergence action against ECHCG in % (ECHCG [7]; dosage 20 g/ha): 100%; Post-emergence action against PHBPU in % (PHBPU [10]; dosage 5 g/ha): 80%; Post-emergence action against PHBPU in % (PHBPU [10]; dosage 20 g/ha): 90%; Pre-emergence action against ECHCG in % (ECHCG [12]; 20 g/ha): 90%; Post-emergence action against SETVI in % (SETVI [13]; dosage 20 g/ha): 80%; Post-emergence action against ABUTH in % (ABUTH [14]; dosage 5 g/ha): 100%; Pre-emergence action against SETVI in % (SETVI [19]; dosage 20 g/ha): 80% |
| CCn1nnnc1NC(=O)c1ccc(C(F)(F)F)c(C(=O)NC(C)C2CC2)c1C (stereo not drawn) [Example 2-31] | 80 |  | 100 | 100 | 80 | 100 | 100 | 80 | 100 | 100 | 100 | 80 | 80 | 80 | 80 | 100 | 100 | 80 | 100 | 80 | Pre-emergence action against DIGSA in % (DIGSA [21]; dosage 20 g/ha): 100%; Pre-emergence action against DIGSA in % (DIGSA [21]; dosage 80 g/ha): 100%; Pre-emergence action against AVEFA in % (AVEFA [5]): 100%; Post-emergence action against ECHCG in % (ECHCG [7]; dosage 5 g/ha): 80%; Post-emergence action against ECHCG in % (ECHCG [7]; dosage 20 g/ha): 90%; Post-emergence action against PHBPU in % (PHBPU [10]; dosage 5 g/ha): 80%; Post-emergence action against PHBPU in % (PHBPU [10]; dosage 20 g/ha): 90%; Post-emergence action against DIGSA (DIGSA [22]): 80%; Post-emergence action against MATIN in % (MATIN [17]; dosage 5 g/ha): 80%; Pre-emergence action against POLCO in % (POLCO; dosage 20 g/ha): 80% |
| CCc1c(C(=O)Nc2nnnn2CC)ccc(C(F)(F)F)c1C(=O)NC [Example 2-271] | 100 | 100 | 100 | 100 | 100 | 100 | 100 | 80 | 100 | 100 | 100 | 100 | 80 | 90 | 100 | 100 | 100 | 80 | 100 | 100 | Pre-emergence action against DIGSA in % (DIGSA [21]; dosage 20 g/ha): 100%; Pre-emergence action against DIGSA in % (DIGSA [21]; dosage 80 g/ha): 100%; Post-emergence action against VIOTR in % (VIOTR [3]; 5 g/ha): 80%; Post-emergence action against VIOTR in % (VIOTR [3]; 20 g/ha): 80%; Post-emergence action against SETVI in % (SETVI [13]; dosage 5 g/ha): 100%; Post-emergence action against SETVI in % (SETVI [13]; dosage 20 g/ha): 100%; Post-emergence action against ABUTH in % (ABUTH [14]; dosage 5 g/ha): 100%; Post-emergence action against VERPE in % (VERPE [16]; 5 g/ha): 80%; Post-emergence action against MATIN in % (MATIN [17]; dosage 5 g/ha): 100%; Pre-emergence action against SETVI in % (SETVI [19]; dosage 20 g/ha): 100% |
